Data on 2 compounds can be found in patent US12661343B2, “Compositions containing nicotinamide and vitamin B6 and methods of using such compositions for promoting muscle growth” (SOCIETE DES PRODUITS NESTLE S.A., priority 2020, dated 2026).

The assay deals with Human primary myoblasts. The experiment in a line: Myogenic amplification and commitment of muscle stem cells (Pax7/MyoD staining, image quantification). Format: cell-based. Conditions: donors 1 and 2 pooled, dose response, 96 hours, normalized to total cell number, control DMSO 1%; for proportion of MyoD+ cells (differentiating), fold change compared to the control condition: FIG. 1B/2B. The procedure:
Human Skeletal Muscle Myoblasts were purchased from Lonza (https://bioscience.lonza.com). These cells were isolated from the upper arm or leg muscle tissue of normal donors and used after the second passage. Several donors were tested to ensure cell viability and purity before selecting the final donors, which are a person (refer thereafter as Donor 1), a person (refer thereafter as Donor 2) and a person (refer thereafter as Donor 3). Human primary myoblasts were seeded in 384 well plates at a density of 1′000 cells per well in skeletal muscle growth medium (SKM-M, AMSbio). For treatment, compounds were directly added to the myoblast cultures 16 hours after initial plating. All cultures were then grown for 96 hours. Cells were stained for Pax7 and MyoD expression using antibodies directed against Pax7 and MyoD and counterstained with Hoechst 33342 to visualize cell nuclei. Pax7+ cells are defined as cells that express Pax7 regardless of MyoD expression. […] Image acquisition was performed using the ImageXpress (Molecular Devices) platform. Custom module analysis based on Multi-Wavelength Cell Scoring of the MetaXpress software was used for quantification. *, **, ***, **** indicates difference from the control, One-way ANOVA, with p<0.05, p<0.01, p<0.001, p<0.0001, respectively. Data are presented as Mean+/−SEM. Human primary myoblasts from different donors (donor 1, donor 2 or donor 3) were seeded in 384 well plates at a density of 1′000 cells per well in skeletal muscle growth medium (SKM-M, AMSbio). For treatment, compounds were directly added to the myoblast cultures 16 hours after initial plating. All cultures were then grown for 96 hours. Cells were stained for Pax7 and MyoD expression using antibodies directed against Pax7 and MyoD and counterstained with Hoechst 33342 to visualize cell nuclei. Pax7+ cells are defined as cells that express Pax7 regardless of MyoD expression. […] Image acquisition was performed using the ImageXpress (Molecular Devices) platform. Custom module analysis based on Multi-Wavelength Cell Scoring of the MetaXpress software was used for quantification. […]

For the compound `NC(=O)c1cccnc1` [Nicotinamide], the “proportion of MyoD+ cells (differentiating), fold change compared to the control condition” value was “increasing the proportion of both amplifying (Pax7+) and differentiating (MyoD+) cells in a dose dependent manner”. The “proportion of Pax7+ cells (amplifying), fold change compared to the control condition” value (FIG. 1A/2A) was “increasing the proportion of both amplifying (Pax7+) and differentiating (MyoD+) cells in a dose dependent manner”.
On to `Cc1ncc(CO)c(CO)c1O` [Pyridoxine], for which the “proportion of MyoD+ cells (differentiating), fold change compared to the control condition” value was “increasing the proportion of differentiating (MyoD+) cells in a dose dependent manner”.
